Measured values: article PMC2744016, “Adenosine Triphosphate Stimulates Aquifex aeolicus MutL Endonuclease Activity” (PLoS ONE, 2009)

How the values were obtained:
Aae MutL [1] = target: T1, Aae MutL (Aquifex aeolicus, UniProt O67518); assay: filter-binding assay with 3H nucleotide; conditions: labelled compound; no DNA, ssDNA or dsDNA M13mp18; 10 mM MgCl2, 50 mM NaCl, pH 7.9, room temperature
T1 construct: full-length (C-terminal domain residues 303-425), expressed in E. coli Rosetta (DE3) from pTWIN1 as Mxe GyrA intein fusion, intein tag cleaved off
T1 sequence (O67518 1-425): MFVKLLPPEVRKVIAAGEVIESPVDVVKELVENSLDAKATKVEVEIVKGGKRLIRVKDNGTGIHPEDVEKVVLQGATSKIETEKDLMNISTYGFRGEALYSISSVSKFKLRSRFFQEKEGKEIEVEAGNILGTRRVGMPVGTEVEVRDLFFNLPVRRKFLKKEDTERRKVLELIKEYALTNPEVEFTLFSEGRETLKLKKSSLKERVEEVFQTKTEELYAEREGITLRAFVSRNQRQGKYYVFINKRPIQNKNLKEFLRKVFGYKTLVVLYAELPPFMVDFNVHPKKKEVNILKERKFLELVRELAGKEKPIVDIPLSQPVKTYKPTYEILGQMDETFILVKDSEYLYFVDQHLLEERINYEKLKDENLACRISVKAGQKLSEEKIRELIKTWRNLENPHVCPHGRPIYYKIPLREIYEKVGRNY

Aae MutL [2] = target: T1, Aae MutL; assay: initial rate of supercoiled pBR322 nicking, agarose gel; format: biochemical; conditions: 1 mM AMPPNP, 1 mM MnSO4, pH 7.6, 37 °C; activator

SMILES | filter-binding assay with 3H nucleotide (Aae MutL [1]) | initial rate of supercoiled pBR322 nicking, agarose gel (Aae MutL [2])
Nc1ncnc2c1ncn2[C@@H]1O[C@H](COP(=O)(O)OP(=O)(O)O)[C@@H](O)[C@H]1O [ADP] | in the presence of ssDNA MutL binds both ATP and ADP with about equal affinity | 
Nc1ncnc2c1ncn2[C@@H]1O[C@H](COP(=O)(O)OP(=O)(O)NP(=O)(O)O)[C@@H](O)[C@H]1O [AMPPNP] |  | AMPPNP stimulated Aae MutL nicking activity to the same extent as observed with ATP
Nc1ncnc2c1ncn2[C@@H]1O[C@H](COP(=O)(O)OP(=O)(O)OP(=O)(O)O)[C@@H](O)[C@H]1O [ATP] | in the presence of ssDNA MutL binds both ATP and ADP with about equal affinity | 
